# Data: PMC12592502, “Unraveling the mechanisms behind the enhanced efficacy of β-lactam-based sideromycins” (Communications Biology, 2025)
# Read-outs that look alike come from different tables or passages of the source.
# Key:
# K. pneumoniae ATCC 13883 = assay: MIC, broth microdilution (CLSI); format: cell-based, Klebsiella pneumoniae; conditions: for MIC with β-lactamase inhibitor (βI): + 4 μg/mL clavulanic acid
# Description: (§1) All bacterial strains (see description and sources Table S1) were stored at −80 °C, and grown on tryptone soya agar (TSA) at 35 °C. The iron-deprived (ID)-MHBCA (cation-adjusted Muller-Hinton Broth, Becton Dickinson, Mississauga, ON, Canada) medium was prepared as reported by refs. [21],[50]. Briefly, MHBCA was treated with 10% Chelex® 50-100 mesh (Sigma) and stirred for 6 h at room temperature. The resin was removed by filtration. Divalent Ca^2+ (CaCl2), Mg^2+ (MgCl2), and Zn^2+(ZnSO4), were then added in the iron-depleted medium at 22, 12, and 1 μg/ml respectively. Finally, the pH was adjusted to 7.3, and the medium was sterilized with a 0.2-μm filter. Regular MHBCA (i.e., not treated with Chelex®) was used to compare the inhibitory activity of conjugates in iron-sufficient conditions. The resin used for Chelex treatment was always fresh and had never been regenerated, ensuring consistent iron removal.
# (§2) Minimal inhibitory concentrations (MICs) were performed using a broth microdilution technique according to the Clinical and Laboratory Standards Institute (CLSI) guidelines. MICs were determined in MHBCA and in ID-MHBCA. To check the impact of β-lactamases, MICs in the presence of a β-lactamase inhibitor were also determined. The inhibitor was homogenized at 2X the final concentration and added to the bacterial inoculum just before distributing cells into the wells containing the drug dilutions. The final concentration of each inhibitor was 4 μg/mL for clavulanic acid (tested against K. pneumoniae) and 200 μg/mL for 3-aminophenylboronic acid (tested against P. aeruginosa and A. baumannii).
# P. aeruginosa ATCC 27853 = assay: MIC, broth microdilution (CLSI); format: cell-based, Pseudomonas aeruginosa
# Description: as §1, with “conditions.” for “conditions. The resin used for Chelex treatment was always fresh and had never been regenerated, ensuring consistent iron removal.”
# as §2
# [1] = test system: P. aeruginosa 2302 MexAB, MexCD, MexEF upregulated; assay: MIC, efflux pump overexpressing strain; format: cell-based, Pseudomonas aeruginosa; conditions: Pseudomonas aeruginosa
# Description: as §2
# PBP1a/1b = assay: Membrane PBP binding assay, competition with Bocillin FL; set-up: species or system E. coli MC4100
# Description: (§3) Membrane extracts containing PBPs were obtained as described above. Briefly, all species were grown in 1 L of TSB until the OD600 reached 0.9. The washed pellet was incubated with lysozyme (400 μg/mL), DNase (10 μg/mL) RNase(10 μg/mL) and anti-protease cocktail (200 mg/20 mL). Lysis was done with a French press (20,000 psi) and membrane protein were pelleted by ultracentrifugation steps (100,000 × g). The pellet was suspended in a minimal volume (300–500 μL) of KP 0.05 M buffer at pH 7. The protein concentration in the membrane preparations was determined with the Micro BCA TM Protein Assay Kit (Thermo Fisher Scientific, Rockford, IL) using bovine serum albumin as a standard.
# (§4) The PBP binding assay was done as described previously[36],[56],[57]. For each antibiotic concentration tested, a quantity of 25 to 40 μg of membrane preparation was used as the source of PBPs, depending on the species. For the purified PaPBP3, 150 ng was used in the assay. First, increasing concentrations of the test antibiotic was added to the membrane or purified PaPBP3 preparations and incubated for 10 min at 30 °C. The reporter molecule Bocillin FL was then added at 12.5 μM for the membrane PBPs preparations and at 500 nM for the pure PaPBP3 samples for an additional 20 min at 30 °C. All reactions were stopped with the addition of the Laemmli-loading buffer (Bio-Rad) containing fresh β-mercaptoethanol (Sigma). All reactions were then heated at 100°C for 3 min before migration on SDS-polyacrylamide discontinuous gel system (7.5% stacking and 10% separating). Control samples without Bocillin FL were also included to highlight autofluorescent proteins that are not PBPs.
# (§5) To be able to visualize labeled PBPs after electrophoresis, gels were rinsed in water and fixed in a solution of 50% methanol and 7% acetic acid for 30 min. The fluorescent images of gels were obtained with the Typhoon FLA 9500 instrument (GE-Healthcare Bio-Sciences Inc., Baie-d’Urfé, QC, CA) using a 473 nm excitation wavelength. To obtain quantifiable data, the software Quantity One 1D analysis was used (version 4.6.6; Bio-Rad Laboratories, Richmond, CA). The volume (intensity × constant area) of each PBP was measured. […] All IC50 data were obtained from at least two independent PBP binding assays using two different sets of compound concentrations using a linear regression. The PBP profiles were confirmed, and the PBP numbering were determined using published data and individual molecular weights. […] For example, amdinocillin (Sigma) was used for PBP2 identification. […] The IC50 for PBP 2 of P. aeruginosa was measured by including the SDS-PAGE comigrating autofluorescent protein in the background, as done previously.
# PBP2 = molecular target: T1, PBP2 (Escherichia coli, UniProt P0AD65); assay: as above; set-up: species or system E. coli MC4100; conditions: read-out: IC50 PBP2; E. coli MC4100 membranes
# T1 construct: using bacterial membranes as the source of PBPs; endogenous in cells; host or cells: E. coli MC4100 membrane preparation
# Description: as §3, §4, §5
# PBP3 = molecular target: T2, PBP3 (Escherichia coli, UniProt P0AD68); assay: as above; set-up: species or system E. coli MC4100
# T2 construct: using bacterial membranes as the source of PBPs; endogenous in cells; host or cells: E. coli MC4100 membrane preparation
# Description: as §3, §4, §5
# PBP4 = molecular target: T3, PBP4 (Escherichia coli, UniProt P24228); assay: as above; set-up: species or system E. coli MC4100; conditions: read-out: IC50 PBP4; E. coli MC4100 membranes
# T3 construct: using bacterial membranes as the source of PBPs; endogenous in cells; host or cells: E. coli MC4100 membrane preparation
# Description: as §3, §4, §5
structure (smiles),measurement,setting,value
"O=C(CCC(=O)N(CCCCNC(=O)c1cccc(O)c1O)CCCNC(=O)c1cccc(O)c1O)NCCCCCN(O)C(=O)CCCC(=O)NC(C(=O)NC1C(=O)N2C(C(=O)O)=C(Cl)CSC12)c1ccccc1 (stereo not drawn) [MCEF, mixed ligand bis-catechol-mono-hydroxamate-cefaclor]",MIC ratio unconjugated β-lactam/conjugate,K. pneumoniae ATCC 13883; ID-MHBCA,<0.016
same,MIC,"K. pneumoniae ATCC 13883; ID-MHBCA (−), 0 µg/mL supplemental iron",>200 µM
same,MIC with β-lactamase inhibitor (βI),K. pneumoniae ATCC 13883; ID-MHBCA,200 µM
same,MIC,"K. pneumoniae ATCC 13883; Klebsiella pneumoniae, ATCC13883, ID-MHBCA (−), 0 µg/mL supplemental iron",> 200 µM
same,MIC,"K. pneumoniae ATCC 13883; Klebsiella pneumoniae, ATCC13883, ID-MHBCA + 1 µg/mL supplemental iron",> 200 µM
same,MIC,"K. pneumoniae ATCC 13883; Klebsiella pneumoniae, ATCC13883, MHBCA (+)",> 200 µM
same,MIC ratio unconjugated β-lactam/conjugate,K. pneumoniae ATCC 13883; MHBCA,<0.016
same,MIC,K. pneumoniae ATCC 13883; MHBCA (+),>200 µM
same,MIC with β-lactamase inhibitor (βI),K. pneumoniae ATCC 13883; MHBCA,13 µM
same,MIC ratio unconjugated β-lactam/conjugate,P. aeruginosa ATCC 27853; ID-MHBCA,No activity
same,MIC,"P. aeruginosa ATCC 27853; ID-MHBCA (−), 0 µg/mL supplemental iron, read-out: MIC",>200 µM
same,MIC ratio unconjugated β-lactam/conjugate,P. aeruginosa ATCC 27853; MHBCA,No activity
same,MIC,"P. aeruginosa ATCC 27853; MHBCA (+), no inhibitor, listed as Mix-CEF, read-out: MIC",> 200 µM
same,MIC,"P. aeruginosa ATCC 27853; MHBCA (+), no inhibitor, read-out: MIC",>200 µM
same,MIC in combination with PAβN,"P. aeruginosa ATCC 27853; MHBCA, + 25 µg/mL PAβN",> 200 µM
same,MIC,"P. aeruginosa ATCC 27853; Pseudomonas aeruginosa, ATCC27853, ID-MHBCA (−), 0 µg/mL supplemental iron, read-out: MIC",> 200 µM
same,MIC,"P. aeruginosa ATCC 27853; Pseudomonas aeruginosa, ATCC27853, ID-MHBCA + 1 µg/mL supplemental iron, read-out: MIC",> 200 µM
same,MIC,"P. aeruginosa ATCC 27853; Pseudomonas aeruginosa, ATCC27853, ID-MHBCA, + 200 μg/mL APB, read-out: MIC with β-lactamase inhibitor (βI)",> 200 µM
same,MIC,"P. aeruginosa ATCC 27853; Pseudomonas aeruginosa, ATCC27853, MHBCA (+), no inhibitor, read-out: MIC",> 200 µM
same,MIC,"P. aeruginosa ATCC 27853; Pseudomonas aeruginosa, ATCC27853, MHBCA, + 200 μg/mL 3-aminophenylboronic acid (APB), read-out: MIC with β-lactamase inhibitor (βI)",> 200 µM
same,MIC,[1],> 100 µM
same,"IC50 value ratio βL/SID-βL, PBP1a/1b",PBP1a/1b; E. coli MC4100,227
same,IC50,"PBP1a/1b; E. coli MC4100 membranes, 12.5 μM Bocillin FL",150 ± 10 nM
same,IC50,PBP2,29.3 ± 2.3 µM
same,"IC50 value ratio βL/SID-βL, PBP3",PBP3; E. coli MC4100,49
same,IC50,"PBP3; read-out: IC50 PBP3, E. coli MC4100 membranes",320 ± 10 nM
same,IC50,PBP4,8.6 ± 1.3 µM
